In ChEMBL document CHEMBL3991601, “The target landscape of clinical kinase drugs” (Science, 2017):
Activity calls are given as the source filed them. For most assays here, no stated cut-off is given here; in the data, actives have a measured Kd and inactives only a lower limit.

Tests used:
[1] = biological target: Eukaryotic translation initiation factor 2-alpha kinase 1 (Homo sapiens, UniProt Q9BQI3)
[2] = biological target: Cyclin-dependent kinase 6 (Homo sapiens, UniProt Q00534)
[3] = biological target: T1, Serine/threonine-protein kinase Nek3 (Homo sapiens, UniProt P51956)
T1 sequence (P51956 whole entry): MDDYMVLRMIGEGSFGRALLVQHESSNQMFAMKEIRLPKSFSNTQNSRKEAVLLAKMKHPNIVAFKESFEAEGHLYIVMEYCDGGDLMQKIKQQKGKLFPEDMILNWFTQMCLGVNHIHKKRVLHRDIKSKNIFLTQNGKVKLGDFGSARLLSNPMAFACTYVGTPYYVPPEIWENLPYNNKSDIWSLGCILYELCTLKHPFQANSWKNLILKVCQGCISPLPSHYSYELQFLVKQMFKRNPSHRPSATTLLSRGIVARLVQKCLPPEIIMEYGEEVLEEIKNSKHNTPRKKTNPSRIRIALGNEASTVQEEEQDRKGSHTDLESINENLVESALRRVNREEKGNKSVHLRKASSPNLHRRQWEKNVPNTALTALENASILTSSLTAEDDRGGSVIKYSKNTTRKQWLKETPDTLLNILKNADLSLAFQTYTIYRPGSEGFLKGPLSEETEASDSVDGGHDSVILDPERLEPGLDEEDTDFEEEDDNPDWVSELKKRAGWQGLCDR

[4] = biological target: Serine/threonine-protein kinase MRCK beta (Homo sapiens, UniProt Q9Y5S2)
[5] = biological target: T2, Serine/threonine-protein kinase TAO3 (Homo sapiens, UniProt Q9H2K8)
T2 sequence (Q9H2K8 whole entry): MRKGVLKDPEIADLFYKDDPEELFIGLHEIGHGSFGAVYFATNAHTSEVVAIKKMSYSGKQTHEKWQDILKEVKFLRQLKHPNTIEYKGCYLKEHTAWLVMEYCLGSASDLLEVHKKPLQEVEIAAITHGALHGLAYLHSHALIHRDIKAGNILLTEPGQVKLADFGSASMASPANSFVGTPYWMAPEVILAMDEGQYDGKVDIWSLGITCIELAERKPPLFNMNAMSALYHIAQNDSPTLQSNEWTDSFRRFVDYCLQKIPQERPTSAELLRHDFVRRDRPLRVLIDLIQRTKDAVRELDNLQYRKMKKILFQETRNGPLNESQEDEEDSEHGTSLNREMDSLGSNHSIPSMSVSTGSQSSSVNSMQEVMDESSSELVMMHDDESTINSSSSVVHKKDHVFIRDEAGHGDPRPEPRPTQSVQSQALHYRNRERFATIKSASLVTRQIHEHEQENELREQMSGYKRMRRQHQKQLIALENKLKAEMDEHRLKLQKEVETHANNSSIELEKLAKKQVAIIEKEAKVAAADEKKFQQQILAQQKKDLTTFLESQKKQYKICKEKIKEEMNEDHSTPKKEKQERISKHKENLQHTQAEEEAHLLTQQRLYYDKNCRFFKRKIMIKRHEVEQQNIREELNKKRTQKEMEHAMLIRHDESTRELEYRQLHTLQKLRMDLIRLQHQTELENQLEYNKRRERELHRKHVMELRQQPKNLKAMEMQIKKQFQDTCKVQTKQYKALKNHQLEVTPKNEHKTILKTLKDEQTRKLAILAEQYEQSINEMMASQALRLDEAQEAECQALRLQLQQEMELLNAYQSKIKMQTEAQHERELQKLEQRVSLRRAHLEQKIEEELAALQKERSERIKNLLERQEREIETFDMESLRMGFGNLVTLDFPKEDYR

[6] = biological target: Rho-associated protein kinase 2 (Homo sapiens, UniProt O75116)
[7] = biological target: Mitogen-activated protein kinase kinase kinase kinase 5 (Homo sapiens, UniProt Q9Y4K4)
[8] = biological target: Ribosomal protein S6 kinase alpha-4 (Homo sapiens, UniProt O75676)
[9] = biological target: T3, Bifunctional phosphoribosylaminoimidazole carboxylase/phosphoribosylaminoimidazole succinocarboxamide synthetase (Homo sapiens, UniProt P22234)
T3 sequence (P22234 whole entry): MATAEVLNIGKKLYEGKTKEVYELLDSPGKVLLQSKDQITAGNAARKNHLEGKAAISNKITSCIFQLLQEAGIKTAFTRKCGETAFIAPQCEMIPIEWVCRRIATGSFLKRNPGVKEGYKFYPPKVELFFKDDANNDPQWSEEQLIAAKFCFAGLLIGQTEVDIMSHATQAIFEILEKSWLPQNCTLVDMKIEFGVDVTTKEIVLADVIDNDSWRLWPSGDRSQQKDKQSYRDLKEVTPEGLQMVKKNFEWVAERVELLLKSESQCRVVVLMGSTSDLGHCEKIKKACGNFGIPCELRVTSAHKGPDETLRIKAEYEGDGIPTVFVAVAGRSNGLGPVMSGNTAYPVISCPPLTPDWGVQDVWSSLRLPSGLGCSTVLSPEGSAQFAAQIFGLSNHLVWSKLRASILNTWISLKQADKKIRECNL

[10] = biological target: T4, Ras-related protein Rab-10 (Homo sapiens, UniProt P61026)
T4 sequence (P61026 whole entry): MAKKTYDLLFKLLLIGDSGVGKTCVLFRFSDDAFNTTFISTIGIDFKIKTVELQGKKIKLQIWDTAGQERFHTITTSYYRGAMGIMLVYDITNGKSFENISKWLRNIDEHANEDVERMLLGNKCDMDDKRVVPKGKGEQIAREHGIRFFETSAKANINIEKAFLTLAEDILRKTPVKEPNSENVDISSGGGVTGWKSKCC

[11] = biological target: T5, Serine/threonine-protein kinase 4 (Homo sapiens, UniProt Q13043)
T5 sequence (Q13043 whole entry): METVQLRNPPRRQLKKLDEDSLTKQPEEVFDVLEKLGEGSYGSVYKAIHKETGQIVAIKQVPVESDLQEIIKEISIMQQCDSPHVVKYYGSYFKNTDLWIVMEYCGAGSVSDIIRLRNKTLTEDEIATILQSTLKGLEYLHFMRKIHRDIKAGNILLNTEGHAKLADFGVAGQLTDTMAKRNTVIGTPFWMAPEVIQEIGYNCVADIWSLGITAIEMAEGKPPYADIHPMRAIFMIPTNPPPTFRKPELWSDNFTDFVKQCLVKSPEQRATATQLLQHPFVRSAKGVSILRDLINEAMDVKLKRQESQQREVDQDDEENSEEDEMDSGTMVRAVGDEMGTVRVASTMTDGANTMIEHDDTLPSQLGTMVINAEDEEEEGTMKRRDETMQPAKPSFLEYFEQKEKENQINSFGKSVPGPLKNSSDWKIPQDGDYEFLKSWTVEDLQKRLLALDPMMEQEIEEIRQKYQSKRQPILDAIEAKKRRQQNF

Measured: Kd

Ribosomal protein S6 kinase alpha-4, sequence (O75676 whole entry): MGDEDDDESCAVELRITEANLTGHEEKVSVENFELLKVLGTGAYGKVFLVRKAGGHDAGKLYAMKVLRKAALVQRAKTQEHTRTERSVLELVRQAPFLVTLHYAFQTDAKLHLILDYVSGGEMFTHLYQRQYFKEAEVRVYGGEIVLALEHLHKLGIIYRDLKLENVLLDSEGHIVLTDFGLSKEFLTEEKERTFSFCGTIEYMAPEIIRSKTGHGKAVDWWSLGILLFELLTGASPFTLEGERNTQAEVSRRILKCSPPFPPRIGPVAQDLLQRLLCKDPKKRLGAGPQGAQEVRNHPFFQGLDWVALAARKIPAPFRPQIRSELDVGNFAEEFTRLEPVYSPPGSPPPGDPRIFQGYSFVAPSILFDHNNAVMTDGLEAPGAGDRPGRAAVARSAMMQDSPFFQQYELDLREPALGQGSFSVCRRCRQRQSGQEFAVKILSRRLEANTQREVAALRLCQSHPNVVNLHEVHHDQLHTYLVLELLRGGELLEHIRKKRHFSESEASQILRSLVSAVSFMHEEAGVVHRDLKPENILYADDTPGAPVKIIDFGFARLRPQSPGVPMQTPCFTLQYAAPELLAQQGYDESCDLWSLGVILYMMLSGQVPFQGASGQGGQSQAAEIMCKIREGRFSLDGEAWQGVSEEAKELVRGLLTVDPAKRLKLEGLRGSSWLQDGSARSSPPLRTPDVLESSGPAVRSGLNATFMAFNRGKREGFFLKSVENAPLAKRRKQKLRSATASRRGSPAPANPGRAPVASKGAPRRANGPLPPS
Serine/threonine-protein kinase MRCK beta, sequence (Q9Y5S2 whole entry): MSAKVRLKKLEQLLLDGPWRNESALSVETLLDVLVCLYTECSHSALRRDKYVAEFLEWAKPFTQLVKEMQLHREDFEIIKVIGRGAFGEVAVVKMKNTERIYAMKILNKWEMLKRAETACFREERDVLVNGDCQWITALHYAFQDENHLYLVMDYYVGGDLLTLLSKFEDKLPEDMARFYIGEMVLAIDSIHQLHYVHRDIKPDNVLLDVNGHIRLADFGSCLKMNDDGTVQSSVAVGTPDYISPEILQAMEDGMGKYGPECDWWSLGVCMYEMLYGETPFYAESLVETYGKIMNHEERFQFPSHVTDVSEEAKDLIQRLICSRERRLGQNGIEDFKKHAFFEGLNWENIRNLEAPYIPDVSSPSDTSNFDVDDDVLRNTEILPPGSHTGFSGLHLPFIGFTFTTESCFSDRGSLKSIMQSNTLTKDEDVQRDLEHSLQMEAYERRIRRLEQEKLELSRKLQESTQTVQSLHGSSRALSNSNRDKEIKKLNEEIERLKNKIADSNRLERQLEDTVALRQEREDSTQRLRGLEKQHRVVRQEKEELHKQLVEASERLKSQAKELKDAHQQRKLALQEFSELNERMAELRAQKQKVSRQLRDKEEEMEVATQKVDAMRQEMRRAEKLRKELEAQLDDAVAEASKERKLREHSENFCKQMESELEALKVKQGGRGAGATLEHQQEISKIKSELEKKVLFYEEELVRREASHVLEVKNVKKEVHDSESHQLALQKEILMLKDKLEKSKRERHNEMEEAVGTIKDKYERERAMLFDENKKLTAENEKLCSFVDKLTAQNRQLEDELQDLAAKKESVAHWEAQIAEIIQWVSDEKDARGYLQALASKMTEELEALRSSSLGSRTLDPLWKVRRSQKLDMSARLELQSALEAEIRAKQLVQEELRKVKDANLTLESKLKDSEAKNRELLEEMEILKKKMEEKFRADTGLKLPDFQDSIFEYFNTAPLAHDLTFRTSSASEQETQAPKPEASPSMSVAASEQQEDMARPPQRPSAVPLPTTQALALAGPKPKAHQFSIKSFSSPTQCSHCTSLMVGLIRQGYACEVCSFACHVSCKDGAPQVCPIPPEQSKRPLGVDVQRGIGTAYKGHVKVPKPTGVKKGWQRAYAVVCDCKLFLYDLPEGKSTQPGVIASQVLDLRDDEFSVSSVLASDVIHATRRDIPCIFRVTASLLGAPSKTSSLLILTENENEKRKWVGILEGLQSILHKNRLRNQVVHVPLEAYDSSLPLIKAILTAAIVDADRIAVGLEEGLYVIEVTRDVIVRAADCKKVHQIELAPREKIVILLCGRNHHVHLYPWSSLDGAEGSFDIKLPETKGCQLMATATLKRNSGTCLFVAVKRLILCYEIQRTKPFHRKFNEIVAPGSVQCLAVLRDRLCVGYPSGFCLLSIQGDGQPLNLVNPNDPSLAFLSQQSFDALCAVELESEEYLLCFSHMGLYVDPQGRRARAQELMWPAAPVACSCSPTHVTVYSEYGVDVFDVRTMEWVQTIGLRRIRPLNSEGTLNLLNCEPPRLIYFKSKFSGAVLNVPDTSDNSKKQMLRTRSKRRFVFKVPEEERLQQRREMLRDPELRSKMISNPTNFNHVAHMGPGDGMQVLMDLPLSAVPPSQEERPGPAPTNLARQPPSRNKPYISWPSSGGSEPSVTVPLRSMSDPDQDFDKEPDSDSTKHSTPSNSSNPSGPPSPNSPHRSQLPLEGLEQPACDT
Eukaryotic translation initiation factor 2-alpha kinase 1, sequence (Q9BQI3 whole entry): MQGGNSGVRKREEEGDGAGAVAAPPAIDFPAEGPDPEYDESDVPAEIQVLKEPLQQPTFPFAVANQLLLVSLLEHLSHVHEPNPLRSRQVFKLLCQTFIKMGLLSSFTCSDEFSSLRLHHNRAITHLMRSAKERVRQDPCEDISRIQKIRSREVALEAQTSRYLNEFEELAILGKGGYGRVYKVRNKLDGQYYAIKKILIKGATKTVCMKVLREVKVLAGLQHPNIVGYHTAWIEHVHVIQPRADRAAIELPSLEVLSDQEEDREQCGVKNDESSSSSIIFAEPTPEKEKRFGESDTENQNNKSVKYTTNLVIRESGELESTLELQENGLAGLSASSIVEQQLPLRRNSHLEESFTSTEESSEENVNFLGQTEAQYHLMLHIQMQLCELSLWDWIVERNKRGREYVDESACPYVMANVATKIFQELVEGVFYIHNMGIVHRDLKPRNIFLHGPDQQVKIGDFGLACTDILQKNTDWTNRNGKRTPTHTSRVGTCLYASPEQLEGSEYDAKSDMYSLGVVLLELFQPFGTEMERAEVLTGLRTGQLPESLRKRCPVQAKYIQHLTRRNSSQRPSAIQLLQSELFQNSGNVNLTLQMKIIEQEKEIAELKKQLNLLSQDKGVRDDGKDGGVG
Mitogen-activated protein kinase kinase kinase kinase 5, sequence (Q9Y4K4 whole entry): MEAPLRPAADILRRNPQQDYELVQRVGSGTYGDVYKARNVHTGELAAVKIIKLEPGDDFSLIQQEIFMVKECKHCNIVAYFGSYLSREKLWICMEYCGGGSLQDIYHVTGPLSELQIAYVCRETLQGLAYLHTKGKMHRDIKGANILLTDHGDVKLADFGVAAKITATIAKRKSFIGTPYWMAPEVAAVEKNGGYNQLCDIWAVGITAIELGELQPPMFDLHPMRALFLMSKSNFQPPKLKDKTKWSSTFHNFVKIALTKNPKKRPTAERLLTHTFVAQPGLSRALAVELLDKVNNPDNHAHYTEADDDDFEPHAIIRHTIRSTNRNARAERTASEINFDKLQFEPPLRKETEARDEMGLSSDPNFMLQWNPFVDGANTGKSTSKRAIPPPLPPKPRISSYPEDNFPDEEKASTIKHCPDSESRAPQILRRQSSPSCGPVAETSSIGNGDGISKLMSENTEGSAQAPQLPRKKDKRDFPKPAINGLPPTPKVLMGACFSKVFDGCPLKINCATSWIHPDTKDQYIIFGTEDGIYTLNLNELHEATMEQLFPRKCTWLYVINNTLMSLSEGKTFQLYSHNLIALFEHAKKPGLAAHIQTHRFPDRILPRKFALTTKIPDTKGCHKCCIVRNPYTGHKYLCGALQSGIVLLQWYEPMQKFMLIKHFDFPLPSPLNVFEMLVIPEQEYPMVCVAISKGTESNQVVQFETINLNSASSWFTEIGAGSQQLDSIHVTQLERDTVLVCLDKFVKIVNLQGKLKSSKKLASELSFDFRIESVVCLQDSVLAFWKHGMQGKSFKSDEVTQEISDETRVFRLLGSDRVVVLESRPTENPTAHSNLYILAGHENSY
Cyclin-dependent kinase 6, sequence (Q00534 whole entry): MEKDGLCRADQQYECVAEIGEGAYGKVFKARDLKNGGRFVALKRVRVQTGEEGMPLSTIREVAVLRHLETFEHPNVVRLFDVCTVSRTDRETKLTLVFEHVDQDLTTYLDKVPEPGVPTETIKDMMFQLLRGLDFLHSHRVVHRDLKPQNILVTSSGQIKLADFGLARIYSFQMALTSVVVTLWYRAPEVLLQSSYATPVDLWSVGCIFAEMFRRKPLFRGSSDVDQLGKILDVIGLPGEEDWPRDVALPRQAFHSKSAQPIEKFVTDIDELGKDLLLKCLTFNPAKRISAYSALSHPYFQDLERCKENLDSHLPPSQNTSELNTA

COCCNCc1ccc(-c2cc3nccc(Oc4ccc(NC(=S)NC(=O)Cc5ccc(F)cc5)cc4F)c3s2)nc1 [GLESATINIB]
inactive: [1] > 30 µM | [2] > 30 µM | [3] > 30 µM | [4] > 30 µM | [5] > 30 µM | [6] > 30 µM | [7] > 30 µM | [8] > 30 µM | [9] > 30 µM | [10] > 30 µM | [11] > 30 µM

Cn1cc(-c2ccc3nnc(C(F)(F)c4ccc5ncccc5c4)n3n2)cn1 [JNJ-38877605]
inactive: [1] > 30 µM | [2] > 30 µM | [3] > 30 µM | [4] > 30 µM | [5] > 30 µM | [6] > 30 µM | [7] > 30 µM | [8] > 30 µM | [9] > 30 µM | [10] > 30 µM | [11] > 30 µM

CC[C@H](Nc1ncnc2[nH]cnc12)c1nc2cccc(F)c2c(=O)n1-c1ccccc1 [IDELALISIB]
inactive: [1] > 30 µM | [2] > 30 µM | [3] > 30 µM | [4] > 30 µM | [5] > 30 µM | [6] > 30 µM | [7] > 30 µM | [8] > 30 µM | [9] > 30 µM | [10] > 30 µM | [11] > 30 µM

CN1CC[C@@H](c2c(O)cc(O)c3c(=O)cc(-c4ccccc4Cl)oc23)[C@@H]1CO
inactive: [1] > 30 µM | [2] > 30 µM | [3] > 30 µM | [4] > 30 µM | [5] > 30 µM | [6] > 30 µM | [7] > 30 µM | [8] > 30 µM | [9] > 30 µM | [10] > 30 µM | [11] > 30 µM

O=C(c1ccc(F)c(F)c1Nc1ccc(I)cc1F)N1CC(O)([C@@H]2CCCCN2)C1 [COBIMETINIB]
inactive: [1] > 30 µM | [2] > 30 µM | [3] > 30 µM | [4] > 30 µM | [5] > 30 µM | [6] > 30 µM | [7] > 30 µM | [8] > 30 µM | [9] > 30 µM | [10] > 30 µM | [11] > 30 µM

Cc1cc(-c2cc(O)ccc2Cl)cc2nnc(Nc3ccc(OCCN4CCCC4)cc3)nc12
inactive: [1] > 30 µM | [2] > 30 µM | [3] > 30 µM | [4] > 30 µM | [5] > 30 µM | [6] > 30 µM | [7] > 30 µM | [8] > 30 µM | [9] > 30 µM | [10] > 30 µM | [11] > 30 µM
